In patent US9517237B2, “Compounds and methods for treating multiple sclerosis” (NEURO VIGOR, LLC, priority 2010, dated 2016):

What was measured:
acrolein-lysine adducts = settings: EAE mice treated with hydralazine, n=3, mean±SEM; EAE 20.27±3.0, control 12.30±1.3
Protocol: Acrolein-lysine adducts in the tissue homogenate was measured using a Bio-Dot SF Microfiltration Apparatus (Bio-Rad, Hercules, Calif., USA), as previously described (Luo et al., 2005a; Shao et al., 2006; Hamann et al., 2008a). Briefly, the tissue was homogenized with TritonX-100 (3%), and the following anti-proteases were added: 2 mmol/L pefabloc, 15 lmol/L pepstatin A, 20 µg/mL aprotinin, and 25 µg/mL leupeptin. The solution was centrifuged to pellet large pieces of tissue and the supernatant was stored at −80° C. until transferred to a nitrocellulose membrane. The membrane was blocked for 1 h in blocking buffer (0.2% casein and 0.1% Tween 20 in PBS) and transferred to 1:1000 polyclonal rabbit anti-acrolein (in blocking buffer with 2% goat serum and 0.025% sodium azide) (Novus Biologicals) for 18 h at 4° C. Next, the membrane was washed in blocking buffer and then transferred to 1:10000 alkaline phosphatase conjugated goat anti-rabbit IgG. […]
The optical density of bands was evaluated using Image J (NIH) and statistical comparison was performed with SAS 9.2 (SAS institute). […]
The acrolein-lysine adducts in control (n=3), EAE mice (n=3) and EAE+HZ mice (n=3) spinal cord are detected using Bio-Dot SF Microfiltration Apparatus. […] Band intensities are analyzed using ImageJ (NIH) and are expressed in arbitrary units. […] All data are expressed as mean±SEM.

EAE mice = test system: EAE mice
Protocol: Animals. C57BL/6 female mice (8 weeks old) were purchased from Harlan Laboratories and were maintained in the lab animal housing facilities. These studies were performed in compliance with the Purdue Animal Care and Use Committee protocol guidelines at Purdue University, West Lafayette, Ind.
Induction of EAE. Nine-twelve week old mice were subcutaneously injected with 0.1 mL MOG35-55/CFA emulsion (EK-0115, Hooke Laboratories) in the neck and lower back (total of 0.2 mL). Within two hours of the injection, 0.1 mL pertussis toxin (EK-0115, Hooke Laboratories) was administered intraperitoneally. A second dose of pertussis toxin of the same volume was given 22-26 hours later. The behavioral performance was assessed using a well established 5-point behavioral scoring system (Kalyvas and David, 2004). The animals were placed on a metal grate and their walking ability was recorded. The scoring system is as follows: 0—no deficit; 1—limp tail only; 2—hind limb paresis but without leg dragging; 3—partial hind limb weakness with one or both legs dragging; 4—complete hind limb paralysis; 5—moribund, paralysis in hind limbs and possibly in one forelimb. The animals were monitored and assessed three times during the first week and then assessed daily for the remainder of the study.
(§1) Hydralazine Treatment. A solution of hydralazine hydrochloride (Sigma) was prepared with phosphate buffered saline. The solution was then sterilized through a filter and stored at 4° C. Hydralazine (1 mg/kg) was administered through daily with intraperitoneal injections from the day the MOG/CFA emulsion was administered until the end of the 30 day study period. For sham treatments, mice were administered saline intraperitoneally rather than the hydralazine solution. Blood pressures were monitored using a CODA 2 system (Kent Scientific Corp.).
(§2) One group of EAE mice are injected with hydralazine (EAE+HZ) at the dose of 1 mg/kg daily starting from the day of induction (n=11). In the sham-treated group (EAE), an equal amount of saline is injected daily (n=12). Both hydralazine and saline (sham) treatments are carried out for 30 days post induction. The behavioral scores of the two groups of mice are recorded daily (FIG. 2 panel A).
Phenelzine is administered via intraperitoneal (IP) injections at 15 mg/kg for 30 days. […] The highest score for each mouse was taken and averaged within each group. All data are expressed as mean±SEM.

EAE mice spinal cord = settings: thoracic spinal cord cross section, n=3, sham treated 25.58±3.8%
Protocol: Mice were perfusion fixed with 4% paraformaldehyde and the vertebral columns were removed and fixed in 4% paraformaldehyde overnight. Spinal cord tissues were extracted out of the vertebral column, cut into 1 cm pieces, and further fixed in 4% paraformaldhyde for 24-48 hours. The samples were cryoprotected by incubating for 24 h in a 10% sucrose solution, followed by 24 hours in a 20% sucrose solution. The samples were then imbedded in Tissue-Tek OCT compound (VWR, Batavia, Ill.) and frozen in liquid nitrogen. 15 μm sections were cut using a cryostat and mounted on gelatin coated slides. Sections were incubated with 5% goat serum and 0.5% Triton-X100 in phosphate buffered saline (PBS) for 30 minutes as blocking agents. […] All sections were observed by fluorescence microscopy.
For quantification, the thoracic sections were imaged, and Adobe Photoshop was used to outline the demyelination area and total white matter area. Pixel area for each sample was calculated and the percentage of demyelination was obtained by dividing the total demyelinated area by total white matter area. […] For each of the 3 groups, (control, EAE, EAE+HZ), 3 animals were used for immunofluorescence quantification.
Total white matter area and lesion areas are manually outlined and the pixel area is calculated. Percent demyelination is calculated by dividing total demyelinated area by total white matter area.

[1] = mouse, in vivo
Protocol: as §1, §2

| Structure (SMILES) | acrolein-lysine adduct level in EAE mice spinal cord (acrolein-lysine adducts) [a.u.] | average onset of symptoms (EAE mice; 1 mg/kg daily i.p. from day of induction, n=11, mean±SEM, sham 15.42±0.4) [days post induction] | average behavioral score (highest score for each mouse averaged within group) (EAE mice; 5-point scale, 1 mg/kg daily i.p. from day of induction, mean±SEM, EAE group 3.33±0.3) | percent demyelination in white matter (EAE mice spinal cord) [%] | average systolic pressure of EAE mice [1] [mmHg] | average systolic pressure of normal mice [1] [mmHg] | behavioral scores evaluated daily (EAE mice; 5-point scale, phenelzine IP 15 mg/kg for 30 days, vs sham) | mean behavioral scores (highest score for each mouse averaged) (EAE mice; phenelzine IP 15 mg/kg for 30 days, vs EAE, p<0.005) | time to EAE symptom onset (EAE mice; phenelzine IP 15 mg/kg for 30 days, vs sham, p<0.005) |
| --- | --- | --- | --- | --- | --- | --- | --- | --- | --- |
| NNc1nncc2ccccc12 [hydralazine] | 15.14±1.6 | 21.73±2.1 | 1.72±0.4 | 5.10±4.2 | 134.8±4.5 | 118.5±6.4 |  |  |  |
| NNCCc1ccccc1 [phenelzine] |  |  |  |  |  |  | significant differences for all comparisons following day 14 | mean behavioral scores are significantly increased in EAE mice compared to the phenelzine treated (EAE+PLZ) group | significant delay in disease progression |
